What all share (type): cell-based
The target in test [1] is T1, human TLR7 (Homo sapiens, UniProt Q9NYK1).
T1 construct: host or cells: HEK-Blue cells
T1 sequence (Q9NYK1 27-1049): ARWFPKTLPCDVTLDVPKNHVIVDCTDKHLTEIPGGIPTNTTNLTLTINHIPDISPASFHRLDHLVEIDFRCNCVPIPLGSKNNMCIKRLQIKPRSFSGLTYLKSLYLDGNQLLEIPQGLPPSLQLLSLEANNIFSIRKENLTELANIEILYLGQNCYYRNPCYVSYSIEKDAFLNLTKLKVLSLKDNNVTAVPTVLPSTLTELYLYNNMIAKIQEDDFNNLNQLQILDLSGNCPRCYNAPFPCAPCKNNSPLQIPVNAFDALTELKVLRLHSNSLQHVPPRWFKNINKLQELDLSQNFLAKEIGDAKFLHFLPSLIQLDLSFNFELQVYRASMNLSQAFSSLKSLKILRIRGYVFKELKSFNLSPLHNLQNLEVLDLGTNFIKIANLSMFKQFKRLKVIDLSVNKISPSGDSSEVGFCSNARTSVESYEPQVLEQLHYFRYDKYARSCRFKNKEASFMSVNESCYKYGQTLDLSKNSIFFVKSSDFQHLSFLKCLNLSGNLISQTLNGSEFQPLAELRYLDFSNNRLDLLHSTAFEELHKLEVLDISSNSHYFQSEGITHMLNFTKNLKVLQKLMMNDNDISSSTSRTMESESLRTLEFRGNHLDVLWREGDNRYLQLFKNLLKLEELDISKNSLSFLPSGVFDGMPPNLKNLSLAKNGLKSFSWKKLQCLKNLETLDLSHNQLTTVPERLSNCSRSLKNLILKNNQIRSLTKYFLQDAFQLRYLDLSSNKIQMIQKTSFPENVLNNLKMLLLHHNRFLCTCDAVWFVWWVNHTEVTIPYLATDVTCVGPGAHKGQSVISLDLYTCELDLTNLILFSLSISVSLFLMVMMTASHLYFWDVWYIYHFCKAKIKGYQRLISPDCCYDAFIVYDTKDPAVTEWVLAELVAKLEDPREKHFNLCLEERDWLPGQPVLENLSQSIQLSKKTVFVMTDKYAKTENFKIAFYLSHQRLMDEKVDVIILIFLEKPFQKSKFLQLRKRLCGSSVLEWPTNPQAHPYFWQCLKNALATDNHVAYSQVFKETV
Kind of test: TLR7 inhibition reporter assay (HEK-Blue SEAP). The conditions noted are these: HEK-Blue cells overexpressing human TLR7, stimulated with gardiquimod 7.5 μM, 22 hour incubation. The essentials:
(§1)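 Reporter HEK-Blue lines; cpd 0.05 nM–50 μM, 30 min preincubation RT; agonist: TLR7 gardiquimod 7.5 μM, TLR8 R848 15.9 μM, TLR9 ODN2006 5 nM; 22 h 37 °C; SEAP detected colorimetrically; % inhib vs known inhibitor.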

For test [2], the target named is T2, human TLR8 (Homo sapiens, UniProt Q9NR97).
T2 construct: host or cells: HEK-Blue cells
T2 sequence (Q9NR97 27-1041): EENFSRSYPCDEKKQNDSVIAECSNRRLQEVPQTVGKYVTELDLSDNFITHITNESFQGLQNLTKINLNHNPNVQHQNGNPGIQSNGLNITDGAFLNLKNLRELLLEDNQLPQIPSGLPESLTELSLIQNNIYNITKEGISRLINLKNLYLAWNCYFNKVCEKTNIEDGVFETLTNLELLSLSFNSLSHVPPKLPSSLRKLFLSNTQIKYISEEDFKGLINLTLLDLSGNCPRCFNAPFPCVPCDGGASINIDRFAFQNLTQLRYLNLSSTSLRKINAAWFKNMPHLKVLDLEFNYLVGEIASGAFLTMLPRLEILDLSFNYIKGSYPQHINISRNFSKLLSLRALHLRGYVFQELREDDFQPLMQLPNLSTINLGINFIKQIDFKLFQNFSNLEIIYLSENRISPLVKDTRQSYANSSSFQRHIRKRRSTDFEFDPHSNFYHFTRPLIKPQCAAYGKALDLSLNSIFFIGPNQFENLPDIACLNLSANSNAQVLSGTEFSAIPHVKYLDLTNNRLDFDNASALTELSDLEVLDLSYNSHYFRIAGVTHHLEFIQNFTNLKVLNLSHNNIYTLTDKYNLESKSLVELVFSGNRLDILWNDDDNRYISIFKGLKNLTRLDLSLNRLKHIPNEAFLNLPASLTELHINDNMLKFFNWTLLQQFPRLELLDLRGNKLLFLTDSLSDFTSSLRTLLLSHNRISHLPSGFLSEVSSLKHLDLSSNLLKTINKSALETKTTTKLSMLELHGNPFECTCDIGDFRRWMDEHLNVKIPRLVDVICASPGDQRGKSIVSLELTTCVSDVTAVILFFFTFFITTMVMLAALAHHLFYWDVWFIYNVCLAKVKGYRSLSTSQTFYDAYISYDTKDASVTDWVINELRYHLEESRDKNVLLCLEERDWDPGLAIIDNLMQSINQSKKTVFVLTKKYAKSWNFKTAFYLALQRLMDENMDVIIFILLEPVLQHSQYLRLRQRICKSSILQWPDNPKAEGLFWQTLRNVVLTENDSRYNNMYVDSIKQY
Kind of test: TLR8 inhibition reporter assay (HEK-Blue SEAP). The conditions noted are these: HEK-Blue cells overexpressing human TLR8, stimulated with R848 15.9 μM, 22 hour incubation. A digest of the protocol: as §1
(In general: In a reporter assay the amount or activity of a reporter protein is the signal.)

Test [3] has as its target T3, human TLR9 (Homo sapiens, UniProt Q9NR96).
T3 construct: host or cells: HEK-Blue cells
T3 sequence (Q9NR96 26-1032): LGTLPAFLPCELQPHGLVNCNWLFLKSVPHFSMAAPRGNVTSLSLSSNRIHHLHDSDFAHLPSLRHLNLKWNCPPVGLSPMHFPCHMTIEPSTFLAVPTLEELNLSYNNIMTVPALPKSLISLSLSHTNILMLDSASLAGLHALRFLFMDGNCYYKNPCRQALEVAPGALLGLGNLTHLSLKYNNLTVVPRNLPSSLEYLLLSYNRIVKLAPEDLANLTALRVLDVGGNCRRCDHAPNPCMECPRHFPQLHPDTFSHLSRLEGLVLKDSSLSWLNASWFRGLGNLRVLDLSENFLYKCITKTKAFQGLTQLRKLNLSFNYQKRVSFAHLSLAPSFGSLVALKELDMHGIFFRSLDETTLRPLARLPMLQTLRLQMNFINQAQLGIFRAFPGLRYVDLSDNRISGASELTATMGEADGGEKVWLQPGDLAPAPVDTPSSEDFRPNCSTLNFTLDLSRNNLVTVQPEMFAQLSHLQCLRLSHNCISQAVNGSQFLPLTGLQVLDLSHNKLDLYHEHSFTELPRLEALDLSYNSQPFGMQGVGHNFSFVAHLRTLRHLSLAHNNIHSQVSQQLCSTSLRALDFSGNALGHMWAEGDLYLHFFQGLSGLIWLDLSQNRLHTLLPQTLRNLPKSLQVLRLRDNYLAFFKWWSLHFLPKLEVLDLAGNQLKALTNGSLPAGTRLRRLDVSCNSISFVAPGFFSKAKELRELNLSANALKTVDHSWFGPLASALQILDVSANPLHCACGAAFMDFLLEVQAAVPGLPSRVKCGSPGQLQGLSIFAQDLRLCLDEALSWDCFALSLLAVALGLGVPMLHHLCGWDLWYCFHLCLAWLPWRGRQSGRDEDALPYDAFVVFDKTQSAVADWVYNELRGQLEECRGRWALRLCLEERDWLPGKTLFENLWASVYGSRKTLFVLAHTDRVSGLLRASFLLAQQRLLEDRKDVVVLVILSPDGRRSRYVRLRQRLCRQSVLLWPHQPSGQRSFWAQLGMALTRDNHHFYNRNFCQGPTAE
Kind of test: TLR9 inhibition reporter assay (HEK-Blue SEAP). The conditions noted are these: HEK-Blue cells overexpressing human TLR9, stimulated with ODN2006 5 nM, 22 hour incubation. A digest of the protocol: as §1

For orientation: IC50 means the concentration needed to halve the response being measured.

Molecules are shown by their SMILES.

Take `Cc1cc2c(N3CCNCC3)n[nH]c2cc1-c1cc(C)c2ncnn2c1` [Example 205, 8-methyl-6-(5-methyl-3-(piperazin-1-yl)-1H-indazol-6-yl)-[1,2,4]triazolo[1,5-a]pyridine]: the IC50 in test [1] came to 0.0141 µM; in test [2], 0.0007 µM; in test [3], 6.1 µM.
Take `Cc1cc(-c2cc3[nH]nc(N4CCNCC4)c3cc2C(C)C)cn2ncnc12` [Example 206, 6-(5-isopropyl-3-(piperazin-1-yl)-1H-indazol-6-yl)-8-methyl-[1,2,4]triazolo[1,5-a]pyridine]: the results for the IC50 in test [1], in test [2] and in test [3] were 0.0032 µM, 0.0164 µM and 21.9 µM, respectively.
The corresponding values for `Cc1cc(-c2cc3[nH]nc(N4CCN(C5CCOCC5)CC4)c3cc2C(C)C)cn2ncnc12` [Example 207, 6-(5-isopropyl-3-(4-(tetrahydro-2H-pyran-4-yl)piperazin-1-yl)-1H-indazol-6-yl)-8-methyl-[1,2,4]triazolo[1,5-a]pyridine] are 0.0065 µM, 0.00015 µM and 33.3 µM.
Taken in the same sequence, the figures for `Cc1cc(-c2cc3[nH]nc(N4CCN(C(C)C)CC4)c3cc2C(C)C)cn2ncnc12` [Example 208, 6-(5-isopropyl-3-(4-isopropylpiperazin-1-yl)-1H-indazol-6-yl)-8-methyl-[1,2,4]triazolo[1,5-a]pyridine] were 0.0058 µM, 0.00012 µM and 11.9 µM.

These data come from patent publication US12172995B2, “Substituted indole and indazole compounds” (BRISTOL-MYERS SQUIBB COMPANY, priority 2018, dated 2024).
